Measurements as given in ChEMBL document CHEMBL1201862, “PubChem BioAssay data set” (2004).
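Compound exposure: 48 hours, 5 concentrations, 96-well plates. GI50 is the concentration that inhibits growth by half.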 Active and inactive are the calls of the source. Rule as the data show it: active = GI50 up to about 1.1 µM and inactive = higher.

Experiments:
Test in all cases: NCI-60 cell line screen, 48 h
[1] = test system: UACC-257
[2] = test system: Malme-3M
[3] = test system: SK-MEL-28
[4] = test system: SNB-75
[5] = test system: MDA-MB-231
[6] = test system: U-251
[7] = test system: RPMI-8226
[8] = test system: OVCAR-8
[9] = test system: SW-620
[10] = test system: NCI/ADR-RES
[11] = test system: A549
[12] = test system: IGROV-1
[13] = test system: HCT-15
[14] = test system: PC-3
[15] = test system: CCRF-CEM
[16] = test system: SNB-19
[17] = test system: UO-31
[18] = test system: T47D
[19] = test system: SF-268
[20] = test system: Hs-578T
[21] = test system: NCI-H522
[22] = test system: SK-OV-3
[23] = test system: MDA-MB-435
[24] = test system: OVCAR-4
[25] = test system: SR
[26] = test system: LOX IMVI
[27] = test system: 786-0
[28] = test system: EKVX
[29] = test system: MOLT-4
[30] = test system: HCT-116
[31] = test system: TK-10
[32] = test system: OVCAR-3
[33] = test system: A498
[34] = test system: ACHN
[35] = test system: DU-145
[36] = test system: COLO 205
[37] = test system: BT-549
[38] = test system: MCF7
[39] = test system: SN12C
[40] = test system: SK-MEL-2
[41] = test system: HOP-92
[42] = test system: SF-295
[43] = test system: HT-29
[44] = test system: MDA-N
[45] = test system: KM12
[46] = test system: CAKI-1
[47] = test system: RXF 393
[48] = test system: NCI-H23
[49] = test system: NCI-H460
[50] = test system: SK-MEL-5
[51] = test system: SF-539
[52] = test system: UACC-62
[53] = test system: M14
[54] = test system: K562
[55] = test system: HL-60
[56] = test system: OVCAR-5

## N#C/C(=C\c1cn(Cc2ccccc2)c2ccccc12)c1nn(-c2ccccc2)c(N)c1C#N
[1]
  GI50: 20.1 µM (inactive)
[2]
  GI50: 21.4 µM (inactive)
[3]
  GI50: 27.7 µM (inactive)
[4]
  GI50: 4.07 µM (inactive)
[5]
  GI50: 4.13 µM (inactive)
[6]
  GI50: 13.6 µM (inactive)
[7]
  GI50: 19.8 µM (inactive)
[8]
  GI50: 10.1 µM (inactive)
[9]
  GI50: 14.8 µM (inactive)
[10]
  GI50: 17.4 µM (inactive)
[11]
  GI50: 11.2 µM (inactive)
[12]
  GI50: 12.8 µM (inactive)
[13]
  GI50: 31.1 µM
[14]
  GI50: 8.22 µM (inactive)
[15]
  GI50: 19.1 µM (inactive)
[16]
  GI50: 13.6 µM (inactive)
[17]
  GI50: 12.9 µM (inactive)
[18]
  GI50: 1.33 µM (inactive)
[19]
  GI50: 24.9 µM (inactive)
[20]
  GI50: 25.6 µM (inactive)
[21]
  GI50: 13.2 µM (inactive)
[22]
  GI50: 15.2 µM (inactive)
[23]
  GI50: 20.6 µM (inactive)
[24]
  GI50: 3.24 µM (inactive)
[25]
  GI50: 24.7 µM (inactive)
[26]
  GI50: 32.2 µM (inactive)
[27]
  GI50: 7.83 µM (inactive)
[28]
  GI50: 8.07 µM (inactive)
[29]
  GI50: 26.1 µM (inactive)
[30]
  GI50: 16.4 µM (inactive)
[31]
  GI50: 15.8 µM (inactive)
[32]
  GI50: 18.2 µM (inactive)
[33]
  GI50: 16.7 µM (inactive)
[34]
  GI50: 18.7 µM (inactive)
[35]
  GI50: 11.1 µM (inactive)
[36]
  GI50: 20.1 µM (inactive)
[37]
  GI50: 22.3 µM (inactive)
[38]
  GI50: 28.2 µM (inactive)
[39]
  GI50: 15.3 µM (inactive)
[40]
  GI50: 4.65 µM (inactive)
[41]
  GI50: 8.41 µM (inactive)
[42]
  GI50: 11.1 µM (inactive)
[43]
  GI50: 11.3 µM (inactive)
[44]
  GI50: 23.2 µM (inactive)
[45]
  GI50: 26.1 µM (inactive)
[46]
  GI50: 17.4 µM (inactive)
[47]
  GI50: 4.81 µM (inactive)
[48]
  GI50: 14.2 µM (inactive)
[49]
  GI50: 12 µM (inactive)
[50]
  GI50: 11 µM (inactive)
[51]
  GI50: 3.11 µM (inactive)
[52]
  GI50: 10.8 µM (inactive)
[53]
  GI50: 20.4 µM (inactive)
[54]
  GI50: 24.3 µM (inactive)
[55]
  GI50: 41.5 µM (inactive)
[56]
  GI50: 18.8 µM (inactive)
